Reference: patent publication US20080261994A1, “CYCLOPROPANE COMPOUNDS AND PHARMACEUTICAL USE THEREOF” (Japan Tobacco Inc., priority 2003, published 2008)
Read-outs that look alike come from different tables or passages of the source.

Assays:
Assay type in all cases: biochemical
MMP-1 = target: T1, MMP-1 (Homo sapiens, UniProt P03956); experiment: MMP-1 inhibitory action (Type I collagen Activity Measurement kit, FITC-labeled collagen type I)
T1 sequence (P03956 100-469): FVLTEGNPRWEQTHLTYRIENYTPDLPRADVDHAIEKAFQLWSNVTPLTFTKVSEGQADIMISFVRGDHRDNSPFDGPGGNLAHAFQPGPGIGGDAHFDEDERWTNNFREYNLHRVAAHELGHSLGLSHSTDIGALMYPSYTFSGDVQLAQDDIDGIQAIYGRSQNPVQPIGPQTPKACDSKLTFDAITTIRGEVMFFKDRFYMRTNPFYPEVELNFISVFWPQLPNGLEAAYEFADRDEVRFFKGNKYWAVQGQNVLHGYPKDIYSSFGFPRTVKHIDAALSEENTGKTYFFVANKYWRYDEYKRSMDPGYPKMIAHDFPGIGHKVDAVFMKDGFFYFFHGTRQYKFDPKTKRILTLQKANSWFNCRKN

aggrecanase-1 = target: T2, aggrecanase-1 (Homo sapiens, UniProt O75173); experiment: Aggrecanase-1 inhibitory action (Particle Assay, GAG release from aggrecan-containing polyacrylamide particles)
T2 sequence (O75173 213-837): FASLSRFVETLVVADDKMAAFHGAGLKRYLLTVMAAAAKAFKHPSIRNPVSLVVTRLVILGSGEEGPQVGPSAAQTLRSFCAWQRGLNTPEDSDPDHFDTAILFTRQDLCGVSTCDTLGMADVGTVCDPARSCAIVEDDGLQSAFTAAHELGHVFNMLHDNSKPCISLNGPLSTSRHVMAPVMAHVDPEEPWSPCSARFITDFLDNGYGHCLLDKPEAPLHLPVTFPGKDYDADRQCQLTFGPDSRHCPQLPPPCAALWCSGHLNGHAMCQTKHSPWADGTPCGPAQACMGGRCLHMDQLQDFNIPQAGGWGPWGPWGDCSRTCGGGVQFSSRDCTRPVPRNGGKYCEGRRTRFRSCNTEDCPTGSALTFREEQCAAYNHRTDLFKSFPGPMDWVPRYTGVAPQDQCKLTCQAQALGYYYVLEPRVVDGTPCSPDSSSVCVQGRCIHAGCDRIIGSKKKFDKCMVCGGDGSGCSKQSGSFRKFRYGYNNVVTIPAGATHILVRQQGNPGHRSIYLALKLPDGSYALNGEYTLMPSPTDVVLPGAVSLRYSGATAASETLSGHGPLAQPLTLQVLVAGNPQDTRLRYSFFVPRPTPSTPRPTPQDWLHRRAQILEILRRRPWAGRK
Procedure, shortened: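 Enzyme and compound incubated with aggrecan-containing polyacrylamide particles in Tris-HCl buffer at 37° C for 15 h. Released GAG in supernatant measured with 1,9-dimethylmethylene blue at 595 nm against chondroitin sulfate standard; % inhibition from enzyme-free and inhibitor-free wells, reported as TC50 (μM).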

Recombinant Human MMP-13 = target: T3, Recombinant Human MMP-13 (Homo sapiens, UniProt P45452); experiment: MMP-13 inhibitory activity (MMP-13 specific fluorescent substrate with quencher)
T3 construct: purchased R&D systems 511-MM
Procedure, shortened: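 Recombinant human MMP-13 with test compound, reaction started with quenched fluorogenic peptide 7-MCA-Pro-CHA-Gly-NVal-His-Ala-DPA in Tris-HCl buffer, 1 h at 25 °C, stopped with acetic acid. Fluorescence at Ex 325/Em 405 nm; % inhibition versus enzyme-free and inhibitor-free wells, reported as IC50 (μM).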

[1] = Experimental Example 2, read-out: IC50 MMP1
[2] = Experimental Example 1, read-out: IC50 AG1
[3] = Experimental Example 3, read-out: IC50 MMP13
[4] = MMP-1 inhibitory action, FITC-labeled collagen type I, 37° C. for 3 hr, read-out: IC50 MMP1 (Experimental Example 2)
[5] = aggrecanase-1 inhibitory action, read-out: IC50 AG1 (Experimental Example 1)
[6] = Recombinant Human MMP-13, fluorescent substrate, 25° C. for 1 h, read-out: IC50 MMP13 (Experimental Example 3)

SMILES | IC50 (MMP-1; [1]) | IC50 (aggrecanase-1; [2]) | IC50 (Recombinant Human MMP-13; [3]) | IC50 (MMP-1; [4]) | IC50 (aggrecanase-1; [5]) | IC50 (Recombinant Human MMP-13; [6])
C[C@]1(c2ccccc2)C[C@@]1(NS(=O)(=O)c1ccc(/C=C/C(F)(F)F)s1)C(=O)O [Example 2-562] | ≥ 1000 nM | ≥ 1000 nM | ≥ 1000 nM |  |  | 
C[C@]1(c2ccccc2)C[C@@]1(NS(=O)(=O)c1ccc(-c2ccc3c(c2)OC(F)(F)O3)s1)C(=O)O [Example 2-544] | ≥ 1000 nM | < 1000 nM | < 1000 nM |  |  | 
O=C(CSCC1(c2ccccc2)CC1(NS(=O)(=O)c1ccc(-c2ccc(Cl)cc2)s1)C(=O)O)N1CCOCC1 (stereo not drawn) [Example 2-359] | ≥ 1000 nM | < 1000 nM | < 100 nM |  |  | 
C[C@]1(c2ccccc2)C[C@@]1(NS(=O)(=O)c1ccc(-c2ccc(Cl)c(CO)c2)s1)C(=O)O [Example 2-564] | ≥ 1000 nM | < 100 nM | < 100 nM |  |  | 
O=C(OCC1(c2ccccc2)CC1(NS(=O)(=O)c1ccc(-c2cc(C(F)(F)F)on2)s1)C(=O)O)N1CCOCC1 (stereo not drawn) [Example 2-306] | ≥ 1000 nM | < 1000 nM | < 1000 nM |  |  | 
O=C(Cc1cccc(C2CC2(NS(=O)(=O)c2ccc(-c3ccc(Cl)cc3)s2)C(=O)O)c1)N1CCOCC1 (stereo not drawn) [Example 2-190] |  |  |  | ≥ 1000 nM | < 100 nM | < 100 nM
O=C(OCCCc1ccccc1C1CC1(NS(=O)(=O)c1ccc(-c2cc(C(F)(F)F)on2)s1)C(=O)O)N1CCC[C@H]1CO (stereo partly drawn) [Example 2-254] |  |  |  | ≥ 1000 nM | < 100 nM | < 100 nM
Cc1nc2cc(N3CCN(S(=O)(=O)N[C@@]4(C(=O)O)C(C)[C@@H]4c4ccccc4)CC3)ccc2s1 (stereo partly drawn) [Example 2-483] | ≥ 10000 nM | ≥ 1000 nM | ≥ 1000 nM |  |  | 
O=C(O)C1(NS(=O)(=O)c2ccc(-c3ccc(Cl)cn3)s2)C2CCCc3ccccc3C21 (stereo not drawn) [Example 2-365] | < 1000 nM | < 100 nM | < 100 nM |  |  | 
CC1C(c2ccccc2)C1(NS(=O)(=O)c1ccc(-c2cccc(CO)c2)s1)C(=O)O (stereo not drawn) [Example 2-525] | < 100 nM | < 100 nM | < 100 nM |  |  | 
CC1[C@H](c2ccccc2)[C@]1(NS(=O)(=O)c1ccc(-c2ccc(Cl)cn2)s1)C(=O)O (stereo partly drawn) [Example 2-366] | < 1000 nM | < 100 nM | < 100 nM |  |  | 
CC1[C@H](c2ccccc2)[C@]1(NS(=O)(=O)c1ccc2c(c1)Cc1cc(Br)ccc1-2)C(=O)O (stereo partly drawn) [Example 2-286] | ≥ 1000 nM | < 100 nM | < 100 nM |  |  | 
O=C(O)C1(NS(=O)(=O)c2ccc(-c3ccc(Cl)cc3)s2)CC1c1ccc(CO)cc1 (stereo not drawn) [Example 2-226] |  |  |  | ≥ 10000 nM | < 1000 nM | < 1000 nM
CCC1CC1(NS(=O)(=O)c1ccc(-c2ccc(Cl)cc2)s1)C(=O)O (stereo not drawn) [Example 2-48] |  |  |  | ≥ 10000 nM | < 1000 nM | ≥ 1000 nM
CC(F)(F)c1cc(-c2ccc(S(=O)(=O)N[C@@]3(C(=O)O)C[C@]3(C)c3ccccc3)s2)no1 [Example 2-107] |  |  |  | < 1000 nM | < 100 nM | < 100 nM
CCOC(=O)CSCC1(c2ccccc2)CC1(NS(=O)(=O)c1ccc(-c2ccc(Cl)cc2)s1)C(=O)O (stereo not drawn) [Example 2-352] | ≥ 1000 nM | < 100 nM | < 100 nM |  |  | 
O=C(Nc1cccc(C2CC2(NS(=O)(=O)c2ccc(-c3cc(C(F)(F)F)on3)s2)C(=O)O)c1)N1CCOCC1 (stereo not drawn) [Example 2-250] |  |  |  | ≥ 1000 nM | < 1000 nM | < 100 nM
CC1[C@H](c2ccccc2)[C@]1(NS(=O)(=O)c1ccc(OCc2ccc(Cl)cc2Cl)cc1)C(=O)O (stereo partly drawn) [Example 2-324] | ≥ 10000 nM | ≥ 1000 nM | ≥ 1000 nM |  |  | 
CN1CCN(C(=O)CCc2ccccc2C2CC2(NS(=O)(=O)c2ccc(-c3cc(C(F)(F)F)on3)s2)C(=O)O)CC1 (stereo not drawn) [Example 2-232] |  |  |  | ≥ 1000 nM | < 1000 nM | < 100 nM
O=C(O)c1cccc([C@H]2C[C@@]2(NS(=O)(=O)c2ccc(-c3ccc(Cl)cc3)s2)C(=O)O)c1 [Example 2-175] |  |  |  | ≥ 1000 nM | < 100 nM | < 1000 nM

SMILES | IC50 (MMP-1; [1]) | IC50 (aggrecanase-1; [2]) | IC50 (Recombinant Human MMP-13; [3]) | IC50 (MMP-1; [4]) | IC50 (aggrecanase-1; [5]) | IC50 (Recombinant Human MMP-13; [6])
C=CC1CC1(NS(=O)(=O)c1ccc(-c2ccc(Cl)cc2)s1)C(=O)O (stereo not drawn) [Example 2-46] |  |  |  | ≥ 10000 nM | ≥ 1000 nM | ≥ 1000 nM
Cc1nc(-c2ccc(S(=O)(=O)N[C@@]3(C(=O)O)C[C@@H]3c3ccccc3)s2)no1 [Example 2-51] |  |  |  | ≥ 10000 nM | ≥ 1000 nM | ≥ 1000 nM
CCc1cc(-c2ccc(S(=O)(=O)N[C@@]3(C(=O)O)C[C@@H]3c3ccccc3)s2)no1 [Example 2-92] |  |  |  | < 1000 nM | < 100 nM | < 100 nM
CC1(C)CC1(NS(=O)(=O)c1ccc(-c2ccc(Cl)cc2)s1)C(=O)O (stereo not drawn) [Example 2-147] |  |  |  | ≥ 10000 nM | ≥ 1000 nM | ≥ 1000 nM
O=C(O)C1(NS(=O)(=O)N2CCN(c3ccc(C(F)(F)F)cn3)CC2)CC1c1ccccc1 (stereo not drawn) [Example 2-68] |  |  |  | ≥ 10000 nM | ≥ 1000 nM | < 100 nM
O=C(O)C1(NS(=O)(=O)c2ccc(Cl)s2)CC1c1ccccc1 (stereo not drawn) [Example 2-82] |  |  |  | ≥ 10000 nM | ≥ 10000 nM | ≥ 10000 nM
CC1(c2ccccc2F)CC1(NS(=O)(=O)c1ccc(-c2cc(C(F)(F)F)on2)s1)C(=O)O (stereo not drawn) [Example 2-615] | < 100 nM | < 100 nM | < 100 nM |  |  | 
CN(C)C(=O)CCc1ccccc1C1CC1(NS(=O)(=O)c1ccc(-c2cc(C(F)(F)F)on2)s1)C(=O)O (stereo not drawn) [Example 2-231] |  |  |  | ≥ 1000 nM | < 1000 nM | < 100 nM
O=C(NO)C1(NS(=O)(=O)c2ccc(-c3cc(C(F)(F)F)on3)s2)C2Cc3ccccc3C21 (stereo not drawn) [Example 2-495] | < 100 nM | < 100 nM | < 100 nM |  |  | 
NCc1ccc([C@@H]2C[C@]2(NS(=O)(=O)c2ccc(-c3cc(C(F)(F)F)on3)s2)C(=O)O)cc1 [Example 2-289] | ≥ 1000 nM | < 1000 nM | < 1000 nM |  |  | 
Cc1cc(-c2ccc(S(=O)(=O)N[C@@]3(C(=O)O)C(C)[C@@H]3c3ccccc3)s2)no1 (stereo partly drawn) [Example 2-374] | < 1000 nM | < 100 nM | < 100 nM |  |  | 
O=C(O)C1(NS(=O)(=O)c2ccc(-c3ccc(Cl)cc3)s2)CC1(COCCO)c1ccccc1 (stereo not drawn) [Example 2-347] | ≥ 10000 nM | < 100 nM | < 1000 nM |  |  | 
CC1[C@H](c2ccccc2)[C@]1(NS(=O)(=O)N1CCCN(c2ccc(F)cc2)CC1)C(=O)O (stereo partly drawn) [Example 2-472] | ≥ 1000 nM | < 1000 nM | ≥ 10000 nM |  |  | 
O=C(Nc1ccccc1)c1ccc(S(=O)(=O)NC2(C(=O)O)CC2c2ccccc2)s1 (stereo not drawn) [Example 2-96] |  |  |  | ≥ 10000 nM | ≥ 10000 nM | < 1000 nM
CC1(C)C(c2ccccc2)C1(NS(=O)(=O)c1ccc(-c2ccc(Cl)cc2)s1)C(=O)O (stereo not drawn) [Example 2-274] | ≥ 10000 nM | < 100 nM | ≥ 1000 nM |  |  | 
NC(=O)CCc1ccc([C@H]2C[C@@]2(NS(=O)(=O)c2ccc(-c3cc(C(F)(F)F)on3)s2)C(=O)O)cc1 [Example 2-278] | < 1000 nM | < 100 nM | < 100 nM |  |  | 
O=C(O)C1(NS(=O)(=O)N2CCC(Oc3ccccc3)CC2)CC1c1ccccc1 (stereo not drawn) [Example 2-143] |  |  |  | ≥ 10000 nM | ≥ 10000 nM | ≥ 1000 nM
CC1[C@H](c2ccccc2)[C@]1(NS(=O)(=O)N1CCN(c2ccncc2)CC1)C(=O)O (stereo partly drawn) [Example 2-533] | ≥ 1000 nM | ≥ 1000 nM | ≥ 1000 nM |  |  | 
CC1[C@H](c2ccccc2)[C@]1(NS(=O)(=O)N1CC=C(c2ccc(Cl)cc2)CC1)C(=O)O (stereo partly drawn) [Example 2-441] | ≥ 1000 nM | < 100 nM | < 100 nM |  |  | 
O=C(O)C1(NS(=O)(=O)c2ccc(-c3cc(C(F)(F)F)on3)o2)C2CCCc3ccccc3C21 (stereo not drawn) [Example 2-373] | ≥ 10000 nM | ≥ 1000 nM | ≥ 1000 nM |  |  | 
